# Patent publication US20250188043A1 (ReproNovo SA, priority 2023, published 2025)
# pIC50: −log10 of the molar value.
# Tests used:
# [1] = Stability program: degradation product formation and appearance; assay type: physicochemical; settings: for DSC onset after stress / DSC ΔH after stress: Bulk (DSC)
# Source text: The mixtures of excipients used for this study are as follows: mixture 1 (maltodextrin, microcrystalline cellulose, sodium carboxymethylcellulose, Aerosil 200, Cutina HR; 64:29:5:0.5:1.5 ratio), mixture 2 (microcrystalline cellulose, spray dried lactose, sodium carboxylmethyl starch, Aerosil 200, magnesium stearate; 20:73.5:5:0.5:1 ratio), and mixture 3 (microcrystalline cellulose, mannitol, crospovidone, magnesium stearate; 15:79.5:4:1.5 ratio). The buffered solutions are aqueous.
# Kinetic solubility = assay type: physicochemical; settings: aqueous buffer, kinetic from dmso stock; room temperature, aqueous solutions between pH 1.0 and pH 6.8
# [2] = Cellular transport by Caco-2 assay; assay type: in vitro ADME, humans; settings: human
# Source text: (§1) The ratio of B-A/A-B is 0.43.
# Caco-2 cell model = assay: Cellular transport by Caco-2 assay; assay type: in vitro ADME, humans
# Source text: as §1
# [3] = test system: obese and overweight men with hypogonadism and low total motile sperm count; assay: Randomized, double-blind phase IIb trial of oral leflutrozole; assay type: in vivo, human; settings: for Semen Volume, change from baseline, LS mean difference (95% CI) vs. placebo / Sperm Morphology, change from baseline, LS mean difference (95% CI) vs. placebo / Sperm Motility, change from baseline, LS mean difference (95% CI) vs. placebo / Spermatozoa, change from baseline, LS mean difference (95% CI) vs. placebo / Total Motile Sperm Count, change from baseline, LS mean difference (95% CI) vs. placebo: Week 20; for Estradiol, Initial: baseline; for population with testosterone normalization: day 8 of treatment (2nd visit); for Estradiol, Change: to week 24; for FSH increase / estradiol decrease / mean LH increase: week 24
# Protocol: The primary endpoint of the study is a change in testosterone levels after 24 weeks of treatment. […] Normalization of testosterone, for the purposes of this trial, was considered to be between 300 and 1000 ng/dL (10.4 and 35 nmol/L, respectively). Levels above 1000 ng/dL are furthermore considered abnormal.
# CYP1A2 = biological target: T1, CYP1A2 (Homo sapiens, UniProt P05177); assay: CYP inhibition, pooled human liver microsomes, probe substrates; assay type: in vitro ADME; settings: up to 100 μM
# T1 construct: assessed by pooled human liver microsomes using enzyme selective probe substrates; from tissue; host or cells: pooled human liver microsomes
# T1 sequence (P05177 1-516): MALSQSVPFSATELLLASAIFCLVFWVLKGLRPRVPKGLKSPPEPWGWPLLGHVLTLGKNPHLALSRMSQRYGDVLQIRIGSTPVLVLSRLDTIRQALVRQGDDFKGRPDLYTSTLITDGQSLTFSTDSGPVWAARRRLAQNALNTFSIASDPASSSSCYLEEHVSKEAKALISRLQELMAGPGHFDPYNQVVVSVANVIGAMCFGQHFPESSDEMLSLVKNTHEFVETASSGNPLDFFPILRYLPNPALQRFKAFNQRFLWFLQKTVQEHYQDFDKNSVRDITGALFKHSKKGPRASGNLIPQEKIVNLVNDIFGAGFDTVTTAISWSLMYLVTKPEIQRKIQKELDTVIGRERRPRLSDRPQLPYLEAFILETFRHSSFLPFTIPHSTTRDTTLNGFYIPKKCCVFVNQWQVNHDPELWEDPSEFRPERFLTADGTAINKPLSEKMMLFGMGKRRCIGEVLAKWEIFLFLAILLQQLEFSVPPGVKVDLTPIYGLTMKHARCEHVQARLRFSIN
# [4] = 2% (or 5%) solution or suspension, 1 day, room temperature, HPMC Cellulose 4000 0.5%
# [5] = Solid-state, 1 week, 50° C., 75% RH, 1% in mixture 1
# [6] = Solid-state, 1 week, 50° C., 75% RH, 1% in mixture 2
# [7] = Solid-state, 1 week, 50° C., 75% RH, 1% in mixture 3
# [8] = Solid-state, 1 week, 50° C., tight container, 1% in mixture 1
# [9] = Solid-state, 1 week, 50° C., tight container, 1% in mixture 2
# [10] = Solid-state, 1 week, 50° C., tight container, 1% in mixture 3
# [11] = Solid-state, 1 week, 80° C., 75% RH
# [12] = Solid-state, 1 week, 80° C., 75% RH, Bulk (HPLC)
# [13] = Solid-state, 1 week, 80° C., tight container
# [14] = Solid-state, 1 week, 80° C., tight container, Bulk (HPLC)
# [15] = Xenon light (approx. 1200 kLuxh)
# [16] = Xenon light (approx. 1200 kLuxh), Bulk (HPLC)
smiles,measurement,setting,value
"N#Cc1ccc(C(F)(c2ccc(C#N)cc2)n2cncn2)cc1 [Form A leflutrozole, 4-[(4-cyanophenyl)-fluoro-(1,2,4-triazol-1-yl)methyl]benzonitrile]","CL (appearance, color)","[1]; 0.1% solution or suspension, 1 week, 80° C., Ethanol",No change
same,"CL (appearance, color)","[1]; 0.1% solution or suspension, 1 week, 80° C., Methanol",No change
same,"CL (appearance, color)","[1]; 0.1% solution or suspension, 1 week, 80° C., Water","No change, suspension formed"
same,"CL (appearance, color)","[1]; 0.1% solution or suspension, 1 week, 80° C., pH 1","No change, suspension formed"
same,"CL (appearance, color)","[1]; 0.1% solution or suspension, 1 week, 80° C., pH 3","No change, suspension formed"
same,form change on storage,[1]; 1 week at 80° C. and 75% relative humidity,no detectable form change
same,"CL (appearance, color)","[1]; 2% (or 5%) solution or suspension, 1 day, room temperature, 0.5% CMC",suspension formed
same,"CL (appearance, color)",[1]; [4],suspension formed
same,DP (degradation product),[1]; [4],0.0%
same,"CL (appearance, color)",[1]; [5],No change
same,DP (degradation product),[1]; [5],0.5%
same,"CL (appearance, color)",[1]; [6],No change
same,DP (degradation product),[1]; [6],0.1%
same,"CL (appearance, color)",[1]; [7],No change
same,DP (degradation product),[1]; [7],0.4%
same,"CL (appearance, color)",[1]; [8],No change
same,DP (degradation product),[1]; [8],0.0%
same,"CL (appearance, color)",[1]; [9],No change
same,DP (degradation product),[1]; [9],0.0%
same,"CL (appearance, color)",[1]; [10],No change
same,DP (degradation product),[1]; [10],0.1%
same,DSC onset after stress,[1]; [11],168 °C onset;
same,DSC ΔH after stress,[1]; [11],ΔH = 110.3 J/g
same,"CL (appearance, color)",[1]; [12],No change
same,DP (degradation product),[1]; [12],0.0%
same,DSC onset after stress,[1]; [13],168 °C onset;
same,DSC ΔH after stress,[1]; [13],ΔH = 114 J/g
same,"CL (appearance, color)",[1]; [14],No change
same,DP (degradation product),[1]; [14],0.0%
same,DSC onset after stress,[1]; [15],169 °C onset;
same,DSC ΔH after stress,[1]; [15],ΔH = 112.6 J/g
same,"CL (appearance, color)",[1]; [16],No change
same,DP (degradation product),[1]; [16],0.0%
same,degradation on exposure to xenon lamp (in words),[1]; xenon lamp,does not degrade
same,solubility kinetic,Kinetic solubility,~0.0607 µg/mL
"N#Cc1ccc(C(F)(c2ccc(C#N)cc2)n2cncn2)cc1 [leflutrozole, 4-[(4-cyanophenyl)-fluoro-(1,2,4-triazol-1-yl)methyl]benzonitrile]",impurities formed,"[1]; mixtures of 1% leflutrozole with various excipients, 1 week, 50° C. and 75% relative humidity",at most 0.5%
same,Papp A→B,"[2]; read-out: apparent permeability, apical to basolateral",54.5 ×10⁻⁶ cm/s
same,Papp B→A,"[2]; read-out: apparent permeability, basolateral to apical",23.2 ×10⁻⁶ cm/s
same,apparent permeability (in words),Caco-2 cell model,very high apparent permeability
same,contribution of efflux transporters such as P-glycoprotein,Caco-2 cell model,no detectable contribution of efflux transporters
same,"Estradiol, Week 24 Measurement",[3]; 0.1 mg,12.94 pg/mL
same,"subjects with normalized testosterone (300-1000 ng/dL), number","[3]; 0.1 mg weekly, after 24 weeks",59 subjects
same,"Semen Volume, change from baseline, LS mean difference (95% CI) vs. placebo",[3]; 0.1 mg,0.7 mL
same,"Sperm Morphology, change from baseline, LS mean difference (95% CI) vs. placebo",[3]; 0.1 mg,−1.9 %
same,"Sperm Motility, change from baseline, LS mean difference (95% CI) vs. placebo",[3]; 0.1 mg,2.7 %
same,"Spermatozoa, change from baseline, LS mean difference (95% CI) vs. placebo",[3]; 0.1 mg,"130.4 (−65.3, 10^6/ejaculate"
same,"Total Motile Sperm Count, change from baseline, LS mean difference (95% CI) vs. placebo",[3]; 0.1 mg,"86.3 (−24.5, 10^6/ejaculate"
same,"Estradiol, Initial",[3]; 0.1 mg,24.69 pg/mL
same,population with testosterone normalization,[3]; 0.1 mg,80.6%
same,"Estradiol, Change",[3]; 0.1 mg,-11.75 pg/mL
same,FSH increase,[3]; 0.1 mg,4.836 mlU/mL
same,estradiol decrease,[3]; 0.1 mg,11.8 pg/mL
same,mean LH increase,[3]; 0.1 mg,2.108 mlU/mL
same,"Estradiol, Week 24 Measurement",[3]; 0.3 mg,11.84 pg/mL
same,"subjects with normalized testosterone (300-1000 ng/dL), number","[3]; 0.3 mg weekly, after 24 weeks",62 subjects
same,"Semen Volume, change from baseline, LS mean difference (95% CI) vs. placebo",[3]; 0.3 mg,0.8 mL
same,"Sperm Morphology, change from baseline, LS mean difference (95% CI) vs. placebo",[3]; 0.3 mg,−2.6 %
same,"Sperm Motility, change from baseline, LS mean difference (95% CI) vs. placebo",[3]; 0.3 mg,−0.1 %
same,"Spermatozoa, change from baseline, LS mean difference (95% CI) vs. placebo",[3]; 0.3 mg,"90.2 (−126.5, 10^6/ejaculate"
same,"Total Motile Sperm Count, change from baseline, LS mean difference (95% CI) vs. placebo",[3]; 0.3 mg,"54.2 (−77.3, 10^6/ejaculate"
same,"Estradiol, Initial",[3]; 0.3 mg,24.80 pg/mL
same,population with testosterone normalization,[3]; 0.3 mg,89.1%
same,"Estradiol, Change",[3]; 0.3 mg,-12.96 pg/mL
same,FSH increase,[3]; 0.3 mg,6.183 mlU/mL
same,estradiol decrease,[3]; 0.3 mg,13 pg/mL
same,mean LH increase,[3]; 0.3 mg,3.560 mlU/mL
same,"Estradiol, Week 24 Measurement",[3]; 1.0 mg,8.63 pg/mL
same,"subjects with normalized testosterone (300-1000 ng/dL), number","[3]; 1.0 mg weekly, after 24 weeks",63 subjects
same,"subjects with normalized testosterone (300-1000 ng/dL), percent","[3]; 1.0 mg weekly, after 24 weeks",94.0%
same,"Semen Volume, change from baseline, LS mean difference (95% CI) vs. placebo",[3]; 1.0 mg,1.4 mL
same,"Sperm Morphology, change from baseline, LS mean difference (95% CI) vs. placebo",[3]; 1.0 mg,−4.1 %
same,"Sperm Motility, change from baseline, LS mean difference (95% CI) vs. placebo",[3]; 1.0 mg,−1.2 %
same,"Spermatozoa, change from baseline, LS mean difference (95% CI) vs. placebo",[3]; 1.0 mg,"270.1 (65.0, 10^6/ejaculate"
same,"Total Motile Sperm Count, change from baseline, LS mean difference (95% CI) vs. placebo",[3]; 1.0 mg,"127.7 (12.6, 10^6/ejaculate"
same,"Estradiol, Initial",[3]; 1.0 mg,23.47 pg/mL
same,population with testosterone normalization,[3]; 1.0 mg,89.1%
same,"Estradiol, Change",[3]; 1.0 mg,-14.84 pg/mL
same,FSH increase,[3]; 1.0 mg,8.282 mlU/mL
same,estradiol decrease,[3]; 1.0 mg,14.8 pg/mL
same,mean LH increase,[3]; 1.0 mg,5.209 mlU/mL
same,primary endpoint (≥75% of subjects with normalization of testosterone by week 24),[3]; all leflutrozole treatment groups,met in all leflutrozole treatment groups
same,"changes from baseline vs placebo in triglycerides, HbA1c, glucose and C-reactive protein","[3]; during the study, p>0.05",No statistically significant changes
same,insulin and HOMA-IR compared with placebo,"[3]; leflutrozole treatment groups, none met statistical significance",Consistent decreases
same,"semen volume improvement, LS mean difference (95% CI)",[3]; stated as across all active treatment arms,"1.4 (0.4, 2.3) mL"
same,sperm count compared to placebo (in words),"[3]; weeks 12 and 20, all three treatment arms",increases were observed across all three treatment arms compared to placebo
same,pIC50,CYP1A2,< 4.30
